Laboratory results from the supplement of paper PMC10307832.

Experiments:
Test in all cases: relative viability (nuclei count vs DMSO), 5 days (fraction); higher = more cells survive
Erlotinib + Palbociclib = compound: C#Cc1cccc(Nc2ncnc3cc(OCCOC)c(OCCOC)cc23)c1 [Erlotinib] + CC(=O)c1c(C)c2cnc(Nc3ccc(N4CCNCC4)cn3)nc2n(C2CCCC2)c1=O [Palbociclib] (partner 0.5 µM)
Procedure, shortened: (§1)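 Relative viability equals treated-well nuclei counts divided by vehicle-well nuclei counts. Counts came from 4× images of lung cancer cell lines grown in 1536-well plates for 5 days after pin-tool dosing on the day after seeding. Dosing used one drug alone or a fixed anchor-drug dose plus five library-drug doses (not always all listed) in √10 steps, and values are medians of duplicate plates.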

Erlotinib + Luminespib = compound: C#Cc1cccc(Nc2ncnc3cc(OCCOC)c(OCCOC)cc23)c1 [Erlotinib] + CCNC(=O)c1noc(-c2cc(C(C)C)c(O)cc2O)c1-c1ccc(CN2CCOCC2)cc1 [Luminespib] (partner 0.01 µM)
Procedure, shortened: as §1

Erlotinib + Crizotinib = compound: C#Cc1cccc(Nc2ncnc3cc(OCCOC)c(OCCOC)cc23)c1 [Erlotinib] + C[C@@H](Oc1cc(-c2cnn(C3CCNCC3)c2)cnc1N)c1c(Cl)ccc(F)c1Cl [Crizotinib] (partner 1 µM)
Procedure, shortened: as §1

Erlotinib + Dasatinib = compound: C#Cc1cccc(Nc2ncnc3cc(OCCOC)c(OCCOC)cc23)c1 [Erlotinib] + Cc1nc(Nc2ncc(C(=O)Nc3c(C)cccc3Cl)s2)cc(N2CCN(CCO)CC2)n1 [Dasatinib] (partner 0.075 µM)
Procedure, shortened: as §1

AT9283 + Navitoclax = compound: O=C(Nc1c[nH]nc1-c1nc2ccc(CN3CCOCC3)cc2[nH]1)NC1CC1 [AT9283] + CC1(C)CCC(c2ccc(Cl)cc2)=C(CN2CCN(c3ccc(C(=O)NS(=O)(=O)c4ccc(N[C@H](CCN5CCOCC5)CSc5ccccc5)c(S(=O)(=O)C(F)(F)F)c4)cc3)CC2)C1 [Navitoclax] (partner 0.5 µM)
Procedure, shortened: as §1

Cell Line	relative viability (Erlotinib + Palbociclib; first compound 0.02 µM)	relative viability (Erlotinib + Palbociclib; first compound 0.2 µM)	relative viability (Erlotinib + Palbociclib; first compound 0.6325 µM)	relative viability (Erlotinib + Palbociclib; first compound 2 µM)	relative viability (Erlotinib + Luminespib; first compound 0.02 µM)	relative viability (Erlotinib + Luminespib; first compound 0.2 µM)	relative viability (Erlotinib + Luminespib; first compound 0.6325 µM)	relative viability (Erlotinib + Luminespib; first compound 2 µM)	relative viability (Erlotinib + Crizotinib; first compound 0.02 µM)	relative viability (Erlotinib + Crizotinib; first compound 0.2 µM)	relative viability (Erlotinib + Crizotinib; first compound 0.6325 µM)	relative viability (Erlotinib + Crizotinib; first compound 2 µM)	relative viability (Erlotinib + Dasatinib; first compound 0.02 µM)	relative viability (Erlotinib + Dasatinib; first compound 0.2 µM)	relative viability (Erlotinib + Dasatinib; first compound 0.6325 µM)	relative viability (Erlotinib + Dasatinib; first compound 2 µM)	relative viability (AT9283 + Navitoclax; first compound 0.003 µM)	relative viability (AT9283 + Navitoclax; first compound 0.03 µM)	relative viability (AT9283 + Navitoclax; first compound 0.09487 µM)	relative viability (AT9283 + Navitoclax; first compound 0.3 µM)
NCI-H2170	0.374	0.36	0.379	0.282	0.685	0.413	0.743	0.398	1.17	1.06	1.1	0.569	0.554	0.548	0.434	0.272	0.536	0.334	0.201	0.179
201T	0.35	0.323	0.319	0.287	1.01	1.03	1.06	0.874	1	0.943	0.905	0.951	0.646	0.548	0.543	0.541	1.24	1.21	1.21	0.524
CAL-12T	0.433	0.125	0.154	0.146	0.3	0.32	0.377	0.226	0.964	0.636	0.356	0.249	0.632	0.307	0.266	0.15	1.47	0.879	0.261	0.21
NCI-H1792	0.612	0.541	0.639		0.42	0.319	0.49	0.281	1	0.931	1.06	0.801	0.875	0.655	0.981	0.608	0.637	0.569	0.248	0.187
NCI-H1651	0.527	0.474	0.514	0.478	0.883	0.837	0.817	0.746	0.876	0.801	0.92	0.786	0.37	0.39	0.469	0.387	1.09	0.956	0.489	0.231
SW 1573	0.38	0.362	0.37	0.355	0.327	0.217	0.214	0.183	0.88	0.814	0.864	0.646	0.764		0.463	0.41	0.868	0.508	0.117	0.117
NCI-H460	0.257	0.14	0.198	0.183	0.03	0.0268	0.033	0.0356	1.08	0.763	1.26	0.74	0.486	0.51	0.5	0.432	1.23	0.987	0.0587	0.0315
ChaGo-K-1	0.89	0.952	0.951	0.854	0.635	0.541	0.604	0.505	1.24	1.16	1.2	1.1	0.626	0.512	0.636	0.5	0.694	0.746	0.244	0.299
EMC-BAC-2	0.529	0.501	0.553	0.505	1.12	1.06	1.19	1.03	0.806	0.68	0.83	0.63	0.33	0.314	0.337	0.342	1.23	0.785	0.199	0.25
PC-3 [JPC-3]	0.536	0.473	0.339	0.376	0.64	0.363	0.406	0.306	0.887	0.409	0.324	0.377	0.937	0.627	0.352	0.29	0.821	0.723	0.363	0.331
LXF-289	0.583	0.566	0.531	0.539	0.813	0.622	0.707	0.634	0.818	0.828	0.761	0.711	0.295	0.274	0.239	0.183	0.93	0.665	0.123	0.133
NCI-H2126	0.381	0.364	0.349	0.367	0.882	0.648	0.589	0.635	1.04	0.892	0.776	0.662	0.595	0.435	0.444	0.374	0.871	0.892	0.634	0.319
BEN	0.497	0.442	0.507	0.483	0.369	0.34	0.442	0.693	0.957	0.738	0.913	0.779	0.318	0.381	0.413	0.3	0.0788	0.0854	0.0605	0.0596
NCI-H3122	0.195	0.215	0.159	0.195	0.0866	0.089	0.0884	0.107	0.287	0.262	0.258	0.241	0.799	0.453	0.903	0.877	1.01	0.902	0.359	0.298
